Assay [1] has as its target Cannabinoid receptor 2 (Homo sapiens, UniProt P34972). Put plainly: Displacement of [3H]-CP55940 from human CB2 receptor transfected in HEK-293EBNA cells after 90 mins by luminescence counting analysis. Type of assay: cell-based. In general terms: Displacement assays read how much labelled ligand stays bound in the presence of the test substance.
Assay [2] concerns the target T1, Cholinesterase (Homo sapiens, UniProt P06276). The experiment in a line: Inhibition of human BuChE using butyrylthiocholine as substrate by Ellman's method. (In general: DTNB colorimetry detects thiols as they appear.)
Assay [3] concerns the target T2, Acetylcholinesterase (Homo sapiens, UniProt P22303). The experiment in a line: Inhibition of human AChE using acetylthiocholine as substrate by Ellman's method.
The target of assay [4] is Cannabinoid receptor 1 (Homo sapiens, UniProt P21554). The experiment in a line: Displacement of [3H]-CP55940 from human CB1 receptor transfected in HEK-293EBNA cells after 90 mins by luminescence counting analysis. It counts as cell-based.
Cannabinoid receptor 1, sequence (P21554 whole entry): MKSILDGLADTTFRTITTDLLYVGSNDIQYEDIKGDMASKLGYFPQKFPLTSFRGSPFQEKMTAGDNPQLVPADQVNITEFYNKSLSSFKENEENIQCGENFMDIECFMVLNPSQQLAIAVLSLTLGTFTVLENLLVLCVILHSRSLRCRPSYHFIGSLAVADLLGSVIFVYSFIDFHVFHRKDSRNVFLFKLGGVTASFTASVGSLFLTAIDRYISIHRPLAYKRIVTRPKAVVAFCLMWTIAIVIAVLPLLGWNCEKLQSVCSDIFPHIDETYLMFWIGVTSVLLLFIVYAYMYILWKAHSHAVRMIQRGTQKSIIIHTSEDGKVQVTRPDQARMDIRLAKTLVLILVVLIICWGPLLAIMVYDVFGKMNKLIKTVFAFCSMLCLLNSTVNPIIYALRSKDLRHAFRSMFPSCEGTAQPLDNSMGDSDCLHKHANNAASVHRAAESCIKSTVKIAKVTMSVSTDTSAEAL
The target in assay [5] is Cannabinoid receptor 1 (Mus musculus) (UniProt P47746). Put plainly: Agonist activity at CB1 receptor in ICR mouse vas deferens assessed as inhibition of electrically induced contractile response after 10 mins.
Cannabinoid receptor 1 (Mus musculus), sequence (P47746 whole entry): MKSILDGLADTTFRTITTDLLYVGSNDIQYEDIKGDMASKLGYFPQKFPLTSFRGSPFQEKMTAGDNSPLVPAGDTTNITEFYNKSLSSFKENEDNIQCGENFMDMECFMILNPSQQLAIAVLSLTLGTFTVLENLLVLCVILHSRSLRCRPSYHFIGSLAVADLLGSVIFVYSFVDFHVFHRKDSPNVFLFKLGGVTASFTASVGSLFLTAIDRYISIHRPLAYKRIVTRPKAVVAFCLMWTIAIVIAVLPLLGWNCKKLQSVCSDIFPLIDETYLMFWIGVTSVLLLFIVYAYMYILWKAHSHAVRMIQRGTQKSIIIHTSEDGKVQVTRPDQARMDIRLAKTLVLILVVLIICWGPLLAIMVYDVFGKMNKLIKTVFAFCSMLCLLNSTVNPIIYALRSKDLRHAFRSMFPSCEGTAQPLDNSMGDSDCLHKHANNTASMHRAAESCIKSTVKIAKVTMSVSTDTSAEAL
Assay [6] shares this target. The experiment in a line: Agonist activity at CB1 receptor in ICR mouse vas deferens assessed as inhibition of electrically induced contractile response at 10^-7 to 2 X 10^-5 M after 10 mins.
The nature of assay [7]: Antioxidant activity in phosphate buffer after 15 mins by ORAC-FL method relative to trolox. It counts as functional.
Assay [8] has as its target T1, Cholinesterase. The experiment in a line: Noncompetitive inhibition of BuChE (unknown origin) using butyrylthiocholine as substrate by Lineweaver-Burk double reciprocal plot analysis.
In assay [9] the target is T3, Cannabinoid receptor (Mus musculus) (UniProt P47746+P47936). The experiment in a line: Agonist activity at CB1/CB2 receptor in ICR mouse vas deferens assessed as inhibition of electrically induced contractile response at 2.7 X 10^-6 M after 10 mins in presence of AM251. It counts as […].
T3 sequence (P47746 whole entry, looked up): as the sequence (P47746 whole entry) above
T3 sequence (P47936 whole entry, looked up): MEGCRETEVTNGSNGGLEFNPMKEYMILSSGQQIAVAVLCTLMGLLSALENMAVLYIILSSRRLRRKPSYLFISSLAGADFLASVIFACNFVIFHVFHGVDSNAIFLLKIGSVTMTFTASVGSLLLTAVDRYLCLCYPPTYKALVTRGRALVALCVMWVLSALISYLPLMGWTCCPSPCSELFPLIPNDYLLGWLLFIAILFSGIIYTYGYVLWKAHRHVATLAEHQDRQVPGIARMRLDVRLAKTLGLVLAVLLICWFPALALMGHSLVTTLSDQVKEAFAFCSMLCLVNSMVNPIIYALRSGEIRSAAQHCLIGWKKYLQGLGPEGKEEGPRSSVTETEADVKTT
Assay [10] deals with T3, Cannabinoid receptor (Mus musculus). Put plainly: Agonist activity at CB1/CB2 receptor in ICR mouse vas deferens assessed as inhibition of electrically induced contractile response at 2.7 X 10^-6 M after 10 mins in presence of AM251 and AM630. Type of assay: […].
Assay [11] deals with Cholinesterase (Equus caballus, UniProt P81908). Put plainly: Inhibition of horse serum BuChE using butyrylthiocholine as substrate by Ellman's method.
Cholinesterase (Equus caballus, UniProt P81908), sequence (P81908 whole entry): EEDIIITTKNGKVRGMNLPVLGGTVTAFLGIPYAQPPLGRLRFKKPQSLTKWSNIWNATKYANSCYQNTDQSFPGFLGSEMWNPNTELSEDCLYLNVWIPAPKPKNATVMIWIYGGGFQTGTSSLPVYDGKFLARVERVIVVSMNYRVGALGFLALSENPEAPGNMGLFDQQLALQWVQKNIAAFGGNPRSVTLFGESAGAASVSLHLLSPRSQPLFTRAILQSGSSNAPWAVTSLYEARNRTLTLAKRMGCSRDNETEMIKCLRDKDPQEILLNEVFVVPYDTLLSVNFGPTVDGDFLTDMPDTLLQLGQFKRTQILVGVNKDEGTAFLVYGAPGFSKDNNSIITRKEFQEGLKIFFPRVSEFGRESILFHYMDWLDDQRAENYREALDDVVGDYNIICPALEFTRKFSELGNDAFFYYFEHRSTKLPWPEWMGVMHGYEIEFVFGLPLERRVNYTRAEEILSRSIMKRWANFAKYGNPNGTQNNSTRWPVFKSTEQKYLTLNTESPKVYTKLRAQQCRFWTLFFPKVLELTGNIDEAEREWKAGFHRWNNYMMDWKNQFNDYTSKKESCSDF
Assay [12] concerns the target T2, Acetylcholinesterase. Put plainly: Competitive inhibition of AChE (unknown origin) by Lineweaver-Burk double reciprocal plot analysis.
The target of assay [13] is T1, Cholinesterase. The experiment in a line: Competitive inhibition of BuChE (unknown origin) using butyrylthiocholine as substrate by Lineweaver-Burk double reciprocal plot analysis.
For assay [14], the target named is T1, Cholinesterase. The experiment in a line: Mixed-type inhibition of BuChE (unknown origin) using butyrylthiocholine as substrate by Lineweaver-Burk double reciprocal plot analysis.

SMILES strings stand for the structures. Calls of active or inactive are those of the source. The calls are words filed in the database; no cut-off is given here.

T2 sequence (P22303 whole entry): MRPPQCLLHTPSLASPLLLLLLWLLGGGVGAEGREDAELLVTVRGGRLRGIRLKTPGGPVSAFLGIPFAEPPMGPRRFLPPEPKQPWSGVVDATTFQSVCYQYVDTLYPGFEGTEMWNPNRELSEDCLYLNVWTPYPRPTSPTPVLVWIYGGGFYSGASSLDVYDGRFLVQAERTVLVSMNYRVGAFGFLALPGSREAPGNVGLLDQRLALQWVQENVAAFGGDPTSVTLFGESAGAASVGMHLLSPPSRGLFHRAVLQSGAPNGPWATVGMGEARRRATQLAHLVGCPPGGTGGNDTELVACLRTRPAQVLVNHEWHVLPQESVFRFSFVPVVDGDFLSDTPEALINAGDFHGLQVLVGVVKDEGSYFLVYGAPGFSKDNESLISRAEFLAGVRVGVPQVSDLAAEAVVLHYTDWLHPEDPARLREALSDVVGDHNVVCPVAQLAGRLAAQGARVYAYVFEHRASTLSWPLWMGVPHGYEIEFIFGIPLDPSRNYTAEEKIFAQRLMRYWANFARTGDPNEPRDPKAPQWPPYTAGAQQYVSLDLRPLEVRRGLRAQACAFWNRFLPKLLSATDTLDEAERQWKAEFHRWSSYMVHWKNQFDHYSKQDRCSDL
Cannabinoid receptor 2, sequence (P34972 whole entry): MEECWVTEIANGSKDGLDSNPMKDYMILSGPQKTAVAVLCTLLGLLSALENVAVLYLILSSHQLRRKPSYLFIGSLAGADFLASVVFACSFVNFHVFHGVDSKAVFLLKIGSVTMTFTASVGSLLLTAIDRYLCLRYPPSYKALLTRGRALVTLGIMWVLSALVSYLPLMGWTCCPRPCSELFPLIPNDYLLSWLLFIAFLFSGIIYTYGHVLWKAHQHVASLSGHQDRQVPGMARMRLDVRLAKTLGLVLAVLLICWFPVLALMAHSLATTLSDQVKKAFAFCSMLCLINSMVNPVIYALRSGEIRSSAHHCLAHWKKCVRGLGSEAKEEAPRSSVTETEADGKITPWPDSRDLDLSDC
T1 sequence (P06276 whole entry): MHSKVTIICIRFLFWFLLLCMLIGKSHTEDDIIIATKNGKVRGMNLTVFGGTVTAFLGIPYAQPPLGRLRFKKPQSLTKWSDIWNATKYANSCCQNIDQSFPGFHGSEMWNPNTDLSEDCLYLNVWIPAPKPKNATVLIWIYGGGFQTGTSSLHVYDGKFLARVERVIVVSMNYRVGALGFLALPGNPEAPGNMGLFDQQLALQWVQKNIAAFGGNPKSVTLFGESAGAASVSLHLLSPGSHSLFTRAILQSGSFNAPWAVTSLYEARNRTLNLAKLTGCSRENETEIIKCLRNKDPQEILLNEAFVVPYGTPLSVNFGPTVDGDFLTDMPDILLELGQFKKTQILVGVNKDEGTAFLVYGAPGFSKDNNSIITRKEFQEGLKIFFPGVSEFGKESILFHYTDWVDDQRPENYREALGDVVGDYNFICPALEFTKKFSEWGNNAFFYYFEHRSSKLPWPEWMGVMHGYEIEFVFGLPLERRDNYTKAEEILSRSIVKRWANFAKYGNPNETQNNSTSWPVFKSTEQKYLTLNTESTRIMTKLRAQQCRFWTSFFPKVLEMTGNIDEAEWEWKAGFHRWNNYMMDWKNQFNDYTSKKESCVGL

What is called Ki is a dissociation constant, usually derived from enzyme kinetics or from competition with a known ligand. A low value points to tighter binding. In general, IC50 refers to the midpoint of a concentration-inhibition curve. Lower therefore signals greater potency. In the case of `c1ccc(COc2nn(Cc3ccccc3)c3ccccc23)cc1`, the inhibitory constant (Ki) in [1] was found to be 3510 nM; in [4], 2600 nM. Besides, the 50% inhibitory concentration (IC50) was above 25000 nM in assay [2] and 2900 nM in assay [3].
Broadly, the inhibition is the change of the read-out against control, counted positive when it falls. As to `c1ccc2cc(COc3nn(CCN4CCCCC4)c4ccccc34)ccc2c1`, in [5], the inhibition entry is “Dose-dependent effect”. Further, the inhibition entry in assay [6] was “Active”. Besides, the Ratio in assay [7] turned out to be 0.5. In addition, the Ki amounted to 1190 nM in assay [8], 2000 nM in assay [1] and 1400 nM in assay [4]. Moreover, the inhibition result in assay [9] and in [10] was “inactive” throughout. In addition, the IC50 in assay [11] was 1400 nM; in assay [2] it was 970 nM; in assay [3] it was above 10000 nM.
Regarding `O=[N+]([O-])c1ccc2c(c1)c(OCc1ccc3ccccc3c1)nn2CCN1CCOCC1`, the inhibition constant Ki in assay [1] worked out at 500 nM; in [4], 1380 nM. The IC50 in assay [11], in assay [2] and in [3] was above 10000 nM in each case.
As for `CCCCCOc1nn(CCCCC)c2ccc([N+](=O)[O-])cc12`, the Ki in assay [1] amounted to 680 nM; in assay [4], 1300 nM. Moreover, the IC50 is above 10000 nM in [11], above 10000 nM in [2] and 4200 nM in assay [3].
For the compound `CC(C)N(CCn1nc(OCc2cccc3ccccc23)c2ccccc21)C(C)C`, in assay [12], the inhibition entry is “Active”. Further, the Ki is 5400 nM in assay [1], 28 nM in assay [13] and above 40000 nM in [4]. For the same compound, the IC50 in assay [2] is 100 nM; in assay [3], above 10000 nM.
Consider `Cc1c(C(=O)c2cccc3ccccc23)c2cccc3c2n1[C@H](CN1CCOCC1)CO3`, for which the inhibition result in [6] is “Active”.
With `O=[N+]([O-])c1ccc2c(c1)c(OCC1CCCCC1)nn2Cc1ccccc1`, the figures for the Ki in [1] and in assay [4] were 90 nM and above 40000 nM, respectively. Further, the half-maximal inhibitory concentration (IC50) in assay [11], in assay [2] and in assay [3] was above 10000 nM in each case. Besides, the inhibition in assay [4] stood at 39%.
Take `O=[N+]([O-])c1ccc2c(c1)c(OCc1ccccc1)nn2Cc1ccccc1`: the Ki in assay [1] is 400 nM; in [4], 1200 nM. The IC50 in assay [11] was above 10000 nM; in [2] it was above 10000 nM; in assay [3] it was 7300 nM.
For the compound `O=[N+]([O-])c1ccc2c(c1)c(OCc1ccc3ccccc3c1)nn2Cc1ccccc1`, the figures for the Ki in assay [1] and in [4] were 400 nM and above 10000 nM, respectively. Further, the half-maximal inhibitory concentration (IC50) is above 10000 nM in assay [11], above 10000 nM in assay [2] and 6300 nM in assay [3].
For `COc1ccc(COc2nn(CCN(C(C)C)C(C)C)c3ccccc23)cc1`, in assay [5], the inhibition entry is “Dose-dependent effect”. Moreover, the Ratio in assay [7] is 1. Also, the results for the inhibition constant Ki in [8], in assay [1] and in assay [4] were 2600 nM, 7700 nM and above 40000 nM, respectively. The inhibition entry in assay [9] and in assay [10] was “inactive” in each case. The IC50 in assay [11] was 2280 nM; in [2], 4800 nM; in [3], above 10000 nM.
For the compound `Nc1ccc2c(c1)c(OCc1cccc3ccccc13)nn2CCN1CCCC1`, in assay [5], the inhibition result is “Dose-dependent effect”. For the same compound, the inhibition result in assay [6], in [9] and in [10] was “Active” each time. Further, in [7], the Ratio was 1.3. Besides, the values for the Ki in assay [1], in assay [13] and in assay [4] were 5000 nM, 1000 nM and 11000 nM, respectively. Further, the concentration for half-maximal inhibition (IC50) was 3000 nM in assay [2] and above 25000 nM in assay [3].
As for `O=[N+]([O-])c1ccc2c(c1)c(OCc1ccc3ccccc3c1)nn2CCN1CCCCC1`, the inhibitory constant (Ki) was determined as 500 nM in assay [1], 2900 nM in assay [14] and 1300 nM in assay [4]. Further, the figures for the IC50 in [11], in assay [2] and in assay [3] were 2070 nM, 3600 nM and above 10000 nM, respectively.
Turning to `O=[N+]([O-])c1ccc2c(c1)c(OCc1ccc3ccccc3c1)nn2Cc1ccc2ccccc2c1`, the Ki in assay [1] and in assay [4] was above 10000 nM throughout. In addition, the IC50 in assay [11], in [2] and in [3] was above 10000 nM in each case.
Regarding `CCCCCn1nc(OCc2ccc(OC)cc2)c2cc([N+](=O)[O-])ccc21`, the figures for the Ki in assay [1] and in [4] were 490 nM and 800 nM, respectively. Further, the IC50 in assay [11] is above 10000 nM; in [2], above 10000 nM; in assay [3], 9700 nM.
Take `c1ccc2c(COc3nn(CCN4CCCC4)c4ccccc34)cccc2c1`: the inhibition entry in assay [5] is “Dose-dependent effect”. In addition, the inhibition entry in [6], in [9] and in [10] was “Active” each time. Also, in assay [7], the Ratio came out at 0.7. In addition, the Ki came to 400 nM in assay [1], 1200 nM in assay [13] and 560 nM in assay [4]. Also, the concentration for half-maximal inhibition (IC50) is 6700 nM in assay [11], 2830 nM in [2] and above 10000 nM in assay [3].
For the compound `COc1ccc(COc2nn(CCN(C(C)C)C(C)C)c3ccc([N+](=O)[O-])cc23)cc1`, the values for the Ki in [1] and in assay [4] were 9000 nM and above 40000 nM, respectively. Besides, the values for the half-inhibitory concentration (IC50) in assay [2] and in assay [3] were above 100000 nM and 91000 nM, respectively.
Take `Nc1ccc2c(c1)c(OCc1ccccc1)nn2Cc1ccccc1`: the values for the inhibition constant (Ki) in assay [1] and in assay [4] were 1600 nM and 4000 nM, respectively. Also, the half-inhibitory concentration (IC50) in [11] and in [2] was above 10000 nM each time.
With `COc1ccc(COc2nn(Cc3ccc(OC)cc3)c3ccccc23)cc1`, the Ki was determined as 900 nM in [1] and 2400 nM in [4]. Also, the IC50 in assay [11], in assay [2] and in [3] was above 10000 nM in each case.
Take `c1ccc2c(COc3nn(Cc4cccc5ccccc45)c4ccccc34)cccc2c1`: the Ki in assay [1] and in assay [4] was above 10000 nM in each case. Besides, the half-inhibitory concentration (IC50) in assay [2] and in assay [3] was above 10000 nM in each case.
`Nc1ccc2c(c1)c(OCc1ccc3ccccc3c1)nn2CCN1CCCCC1`: the inhibition entry in [5] is “Dose-dependent effect”. Further, the inhibition entry in assay [6] is “Active”. Moreover, the Ratio in assay [7] came out at 0.8. Besides, the inhibition entry in assay [9] and in [10] was “inactive” each time. Also, the Ki in [1] was 2000 nM; in [14], 380 nM; in [4], above 40000 nM. The half-inhibitory concentration (IC50) in [11] is 1500 nM; in [3] it was above 10000 nM.
`O=[N+]([O-])c1ccc2c(c1)c(OCc1cccc3ccccc13)nn2Cc1cccc2ccccc12`: the inhibition constant (Ki) in assay [1] is 240 nM; in assay [4] it was 3800 nM. The IC50 in assay [2] was above 10000 nM; in assay [3] it was 6700 nM.
Take `c1ccc2c(c1)c(OCC1CCCCC1)nn2CC1CCCCC1`: the inhibition constant Ki in assay [1] was 1300 nM; in assay [4] it was 200 nM. Besides, the values for the half-maximal inhibitory concentration (IC50) in assay [11], in assay [2] and in [3] were above 10000 nM, above 10000 nM and 7100 nM, respectively.
`c1ccc2c(COc3nn(CCN4CCCCC4)c4ccccc34)cccc2c1`: in assay [5], the inhibition entry was “Dose-dependent effect”. Further, the inhibition entry in assay [6], in [9], in [12] and in [10] was “Active” in each case. In addition, in assay [7], the Ratio is 0.5. Moreover, the values for the Ki in [1], in assay [13] and in assay [4] were 240 nM, 220 nM and 3000 nM, respectively. The values for the IC50 in assay [11], in assay [2] and in assay [3] were 910 nM, 810 nM and above 10000 nM, respectively.
`O=[N+]([O-])c1ccc2c(c1)c(OCc1cccc3ccccc13)nn2CCN1CCCC1`: the inhibition result in [5] was “Dose-dependent effect”. The Ki in assay [1] stood at 130 nM; in assay [13] it was 2100 nM; in assay [4] it was 600 nM. The 50% inhibitory concentration (IC50) in assay [2] is 4500 nM; in assay [3], above 25000 nM.
For `CCCCCn1nc(OCc2ccc3ccccc3c2)c2cc([N+](=O)[O-])ccc21`, the figures for the Ki in assay [1] and in [4] were 1370 nM and 1600 nM, respectively. Further, the IC50 in assay [11] is above 10000 nM; in assay [2] it was above 10000 nM; in assay [3], 8200 nM.
`Brc1ccc2c(c1)c(OCc1ccc3ccccc3c1)nn2CCN1CCCCC1`: the results for the Ki in assay [1], in assay [13] and in assay [4] were 1800 nM, 79 nM and 1700 nM, respectively. The concentration for half-maximal inhibition (IC50) is 190 nM in [2] and above 10000 nM in assay [3].

(Values after ChEMBL document CHEMBL3112400, “Cannabinoid agonists showing BuChE inhibition as potential therapeutic agents for Alzheimer's disease” (Eur J Med Chem, 2014).)
